Laboratory results: patent US7445791B2, “Synergistic insecticidal composition containing Chloronicotynyle and Organosphosphorus compounds” (priority 2004, dated 2008)
Converted amounts (≈) assume the structure as drawn. Like-named read-outs stand apart in the source and are kept apart here.

Experiments:
[1] = cited from earlier work
[2] = cited from earlier work; for DT50 hydrolysis: 40° C.; for DT 50 (calculated) hydrolysis: 20° C.
[3] = 20° C.; cited from earlier work
crop plants = conditions: cited from earlier work
[4] = system: Brown plant hoppers and Green plant hoppers; assay type: in vivo; conditions: 5 days after treatment
Experimental: In this evaluation, Brown plant hoppers and Green plant hoppers are obtained from laboratory colonies. Paddy leaves are immersed in 1:1 v/v, acetone/water solutions of the test compound, or solution of a combination of the test compounds, for a period of about 4 seconds. Following immersion, leaves are allowed to air-dry for 2-3 hours. Plastic bioassay trays containing multiple open-faced wells (4.0×4.0×2.5 cm) are used. Cut portions of a treated leaf, a moistened cotton dental wick and a single third-instar larva are placed into each well. These wells are covered with an adhesive vented clear plastic sheet which is held under constant fluorescent light at about 30° C. for a predetermined period of time. Larval mortality/morbidity is evaluated at 5 days after treatment. All treatments are replicated 3-4 fold in a randomized complete block design with 15-30 larvae per treatment. Using conventional log-probit analysis, the LC50 of each treatment is determined.
Using the above process, a Chloronicotynyle compound may be evaluated alone and in combination with a second insecticidal compound, Imidacloprid, at dose rates of 0, 15, 18, 21, 24, 27 and 30 ppm and in combination with Acephate 0, 400, 500, 600, 700, 800 ppm in various combination of these strengths.
Synergism can be calculated by using the Colby's method i.e. the expected (or predicted) response of the combination is calculated by taking the product of the observed response for each individual component of the combination when applied alone divided by 100 and subtracting this value from the sum of observed response for each component when applied alone. Synergism of the combination is then determined by comparing the observed response of the combination to the expected (or predicted) response as calculated from the observed response of each individual component alone. If the observed response of the combination is greater than the expected (or predicted) response then the combination is said to be synergistic and falls within the definition of synergistic effect. (Colby, S. R., Weeds, 1967(15), p. 20-22).

[5] = system: nematodes and spider mites; conditions: cited from earlier work
mice = conditions: cited from earlier work
[6] = mammals, oral administration, almost entirely in the urine; cited from earlier work

Compound: COP(=O)(NC(C)=O)SC (stereo not shown) [Acephate, O,S-dimethylacetylphosphoramidothioate]
- solubility in acetone ([1]; 20° C.): 151 mg/mL (≈ 824 mM)
- solubility in benzene ([1]; 20° C.): 16 mg/mL (≈ 87.4 mM)
- solubility in ethanol ([1]; 20° C.): > 100 mg/mL
- solubility in ethyl acetate ([1]; 20° C.): 35 mg/mL (≈ 191 mM)
- solubility in hexane ([1]; 20° C.): 0.1 mg/mL (≈ 0.546 mM)
- DT50 hydrolysis ([2]; pH 3): 710 h
- DT50 hydrolysis ([2]; pH 9): 60 h
- solubility in water [3]: about 790 g/l
- phytotoxicity to crop plants (in words) (crop plants): non-phytotoxic to most crop plants
- Observed Mortality % ([4]; Acephate 600 ppm alone): 52.50%
- Observed Mortality % ([4]; Acephate 700 ppm alone): 60.00%
- Observed Mortality % ([4]; Acephate 800 ppm alone): 70.00%

Compound: O=[N+]([O-])NC1=NCCN1Cc1ccc(Cl)nc1 [Imidacloprid, 1-(6-chloro-3-pyridylmethyl)-N-nitroimidazolidin-2-yldeneamine]
- solubility in dichloromethane ([1]; 20° C.): 55 mg/mL (≈ 215 mM)
- solubility in hexane ([1]; 20° C.): < 0.1 mg/mL
- solubility in isopropanol ([1]; 20° C.): 1.2 mg/mL (≈ 4.69 mM)
- solubility in toluene ([1]; 20° C.): 0.68 mg/mL (≈ 2.66 mM)
- effect on nematodes and spider mites [5]: no effect
- acute oral LD50 (mice): 150 mg/kg
- Observed Mortality % ([4]; Imidacloprid 20 ppm alone): 47.30%

Compound: CCN(CC)C(=O)C(Cl)=C(C)OP(=O)(OC)OC [Phosphamidon, 2-chloro-2-diethylcarbamoyl-1-methylvinyldimethylphosphate]
- DT 50 (calculated) hydrolysis ([2]; pH 5): 60 days
- DT 50 (calculated) hydrolysis ([2]; pH 7): 54 days
- DT 50 (calculated) hydrolysis ([2]; pH 9): 12 days
- hydrolysis in alkali (in words) ([2]; alkali): rapidly hydrolysed
- dose excreted within 24 hours [6]: 85-90%
- Observed Mortality % ([4]; Phosphamidon 320 ppm alone): 60.0%
- Observed Mortality % ([4]; Phosphamidon 370 ppm alone): 65%
- Observed Mortality % ([4]; Phosphamidon 400 ppm alone): 72.0%

Compound: (E)-N′-[(6-chloro-3-pyridyl)methyl]-N-cyano-N-methylacetamidine [Acetamiprid]
- solubility in organic solvents (in words) ([1]; acetone, methanol, ethanol, dichloromethane, chloroform, acetonitrile and tetrahydrofuron): Soluble
